Values of other authors, collected in US20150297556A1 (priority 2014, published 2015).

## (1S,5S)-2,6,6-Trimethylbicyclo[3.1.1]hept-2-ene ((−)-α-Pinene)
  human pulmonary uptake: 60%
